Some results are limits rather than exact numbers.

The assay has as its target T1, human Arginine Vasopressin Receptor 1b (AVPR1b) (Homo sapiens, UniProt P47901).
T1 construct: expressed in transfected cells; host or cells: CHO (CHO-AVPR1b, kept under G418 selection)
T1 sequence (P47901 1-424): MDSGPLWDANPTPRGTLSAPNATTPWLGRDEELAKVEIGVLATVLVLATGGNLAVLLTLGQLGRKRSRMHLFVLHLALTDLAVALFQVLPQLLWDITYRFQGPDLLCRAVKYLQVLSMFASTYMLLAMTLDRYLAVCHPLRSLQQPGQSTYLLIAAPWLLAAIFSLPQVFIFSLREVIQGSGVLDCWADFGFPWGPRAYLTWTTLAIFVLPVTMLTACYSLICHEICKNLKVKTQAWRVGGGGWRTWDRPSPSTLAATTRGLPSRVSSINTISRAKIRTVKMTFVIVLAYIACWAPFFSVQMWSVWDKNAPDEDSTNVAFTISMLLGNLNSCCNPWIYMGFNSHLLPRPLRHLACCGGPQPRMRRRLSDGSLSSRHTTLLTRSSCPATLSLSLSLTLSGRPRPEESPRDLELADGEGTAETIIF
Description: Vasopressin V1b receptor antagonist assay (FLIPR calcium, CHO-AVPR1b cells). Type of assay: cell-based. As for the experimental part:
The purpose of the assay was to determine the inhibitory effect of synthesized compounds on the Vasopressin V1b receptor. The assay was performed in Chinese Hamster Ovary (CHO) cells expressing the human Arginine Vasopressin Receptor 1b (AVPR1b). Arginine Vasopressin (AVP) evokes an increase in intracellular calcium in CHO-AVPR1b cells which is measured in a fluorescence assay on the FLIPR^TETRA using calcium sensitive dyes. Test compounds were assessed for their ability to affect the magnitude of the response to AVP, with antagonists showing a concentration-dependent reduction in the AVP-mediated fluorescence.
CHO-AVPR1b cells were maintained in routine culture in T175 Flasks at 37° C., 5% CO2. The growth medium consisted of Ham's F12 media supplemented with 10% v/v fetal bovine serum, 1× non-essential amino acids, and 0.4 mg/ml Geneticin G418.
Cells were harvested from T175 flasks when they were 80-90% confluent by first washing the cell monolayer with PBS and then dissociated using trypsin 0.05%/EDTA (3 mL for a T175 Flask). The flasks were incubated at room temperature until the cells detached. To the cell suspension, 10 ml of growth media was added and the cell density determined using the Vi-Cell automated cell counter. The cells were spun at 1000 rpm for 3 minutes, then the supernatant was carefully removed and discarded. The cell pellet was re-suspended at 6.0e^5 cells/ml in growth media. 25 μL of cells in growth media was dispensed into each well (15,000 cells per well) of a poly-D-lysine coated black, clear bottomed, 384-well plate. The plates were incubated at 37° C., 5% CO2 overnight.
At the start of each assay day, the potency of AVP was assessed and an EC80 concentration determined for subsequent compound profiling. Assays were performed using a two-step addition protocol on the FLIPR^TETRA; first addition of 5 μl of control or test compound at 10× final in assay buffer with 15 min incubation at 37° C., 5% CO2 followed by 10 μl of AVP at 6× final concentration in assay buffer. Changes in fluorescence were monitored for 3 min after both additions on the FLIPR^TETRA using 470-495 nm excitation and 515-575 nm emission wavelengths. The assay buffer consisted of HBSS (+Ca/+Mg) supplemented with 20 mM HEPES, and for the preparation of the AVP agonist only, 0.1% w/v bovine serum albumin. The assay was initiated by the removal of growth media from the cells and replacement with 45 μl of Calcium-6 dye (Molecular Devices) prepared at 1× in assay buffer. Cells were loaded with dye for 60-90 min at 37° C., 5% CO2 before initiation of the FLIPR^TETRA protocol. […] For compound profiling, test compounds were first serially diluted in DMSO (10-point curve, 1:3 dilutions) then diluted 33.3-fold in assay buffer prior to addition to the dye loaded cells on the FLIPR^TETRA. At the end of the incubation period 10 μl of AVP in assay buffer containing 0.1% BSA was added at the previously determined EC80 concentration.
In-plate controls for the assay included a Nelivaptan concentration-response curve as the reference V1b antagonist and an AVP concentration-response curve to confirm the reproducibility of the EC80 used for the compound challenge.
As usually defined, the IC50 is the concentration that gives 50% inhibition. Regarding `O=C(N1CC2(C1)CN(c1ccc(F)cn1)C2)N1CCOCc2cc(Cl)ccc21` [8-4], the IC50 is not below 1 µM.
The figure for `O=C(N1CC2(C1)CN(c1ccc(F)cn1)C2)N1CCc2cc(Cl)ccc21` [8-11] is not below 1 µM; for `O=C(N1CC2(C1)CN(c1ccccn1)C2)N1CCOCc2cc(Cl)ccc21` [8-12] it is not below 1 µM; for `O=C(N1CC2(C1)CN(c1cnccn1)C2)N1CCOCc2cc(Cl)ccc21` [8-13] it is not below 1 µM.
With `O=C(N1CC2(C1)CN(c1cnccn1)C2)N1CCc2cc(Cl)ccc21` [8-14] the figure was not below 1 µM; with `CC1Cc2cc(Cl)ccc2N1C(=O)N1CC2(C1)CN(c1ccc(F)cn1)C2` (centres unmarked) [8-16], not below 1 µM; with `CC1COc2cc(Cl)ccc2N1C(=O)N1CC2(C1)CN(c1cccnn1)C2` (centres unmarked) [9-1, (7-chloro-3-methyl-2,3-dihydro-4H-benzo[b][1,4]oxazin-4-yl)(6-(pyridazin-3-yl)-2,6-diazaspiro[3.3]heptan-2-yl)methanone], not below 1 µM.
Take `COc1ccc2c(c1)OCCN2C(=O)N1CC2(C1)CN(c1ccc(F)cn1)C2` [9-2]: the IC50 was not below 1 µM.
The figure for `CC1CN(C(=O)N2CC3(C2)CN(c2ccc(F)cn2)C3)c2ccc(Cl)cc2O1` (centres unmarked) [9-3] is not below 1 µM; for `O=C(N1CC2(C1)CN(c1ccc(F)cn1)C2)N1CCOc2cc(F)c(F)cc21` [9-6] it is not below 1 µM; for `O=C(N1CC2(C1)CN(c1ccc(F)cn1)C2)N1CCOc2cc(Cl)ccc21` [9-7] it is not below 1 µM.
The figure for `CCC1COc2cc(Cl)ccc2N1C(=O)N1CC2(C1)CN(c1ccccn1)C2` (centres unmarked) [11-1, (7-chloro-3-ethyl-2,3-dihydro-4H-benzo[b][1,4]oxazin-4-yl)(6-(pyridin-2-yl)-2,6-diazaspiro[3.3]heptan-2-yl)methanone] is not below 1 µM; for `CC1COc2cc(F)ccc2N1C(=O)N1CC2(C1)CN(c1ccc(F)cn1)C2` (centres unmarked) [12-1, (7-fluoro-3-methyl-2,3-dihydro-4H-benzo[b][1,4]oxazin-4-yl)(6-(5-fluoropyridin-2-yl)-2,6-diazaspiro[3.3]heptan-2-yl)methanone] it is not below 1 µM; for `O=C(N1CC2(C1)CN(c1ccc(F)cn1)C2)N1CCC(O)c2cc(Cl)ccc21` (centres unmarked) [13-1, (6-chloro-4-hydroxy-3,4-dihydroquinolin-1(2H)-yl)(6-(5-fluoropyridin-2-yl)-2,6-diazaspiro[3.3]heptan-2-yl)methanone] it is not below 1 µM.
The figure for `O=C(N1CC2(C1)CN(c1cnccn1)C2)N1CCC(O)c2cc(Cl)ccc21` (centres unmarked) [13-3] is not below 1 µM; for `O=C(N1CC2(C1)CN(c1ccc(F)cn1)C2)N1CCC(F)c2cc(Cl)ccc21` (centres unmarked) [14-1, (6-chloro-4-fluoro-3,4-dihydroquinolin-1(2H)-yl)(6-(5-fluoropyridin-2-yl)-2,6-diazaspiro[3.3]heptan-2-yl)methanone] it is not below 1 µM.
As for `O=C(N1CC2(C1)CN(c1ccc(F)cn1)C2)N1CCC(F)(F)c2cc(Cl)ccc21` [17-1, (6-chloro-4,4-difluoro-3,4-dihydroquinolin-1(2H)-yl)(6-(5-fluoropyridin-2-yl)-2,6-diazaspiro[3.3]heptan-2-yl)methanone], the IC50 was not below 1 µM.
In the case of `CC1COc2cc(F)ccc2N1C(=O)N1CC2(C1)CN(c1ncccn1)C2` (centres unmarked) [18-1, (7-fluoro-3-methyl-2,3-dihydro-4H-benzo[b][1,4]oxazin-4-yl)(6-(pyrimidin-2-yl)-2,6-diazaspiro[3.3]heptan-2-yl)methanone], the IC50 was not below 1 µM.
For the compound `CC1COc2cc(Cl)ccc2N1C(=O)N1CC2(C1)CN(c1noc3cccnc13)C2` (centres unmarked) [18-3], the IC50 was not below 1 µM.
Turning to `CC1COc2cc(F)c(F)cc2N1C(=O)N1CC2(C1)CN(c1ncccn1)C2` (centres unmarked) [19-1, (6,7-difluoro-3-methyl-2,3-dihydro-4H-benzo[b][1,4]oxazin-4-yl)(6-(pyrimidin-2-yl)-2,6-diazaspiro[3.3]heptan-2-yl)methanone], the IC50 was not below 1 µM.
With `CC1COc2cc(Cl)c(F)cc2N1C(=O)N1CC2(C1)CN(c1ncccn1)C2` (centres unmarked) [19-2] the figure was not below 1 µM; with `CC1COc2cc(F)c(F)cc2N1C(=O)N1CC2(C1)CN(c1cccnn1)C2` (centres unmarked) [19-3], not below 1 µM; with `CC1COc2cc(Cl)c(F)cc2N1C(=O)N1CC2(C1)CN(c1cccnn1)C2` (centres unmarked) [19-4], not below 1 µM.
With `CC1COc2cc(F)c(F)cc2N1C(=O)N1CC2(C1)CN(c1ccc(F)cn1)C2` (centres unmarked) [19-5] the figure was not below 1 µM; with `CC1COc2cc(Cl)c(F)cc2N1C(=O)N1CC2(C1)CN(c1cccnc1)C2` (centres unmarked) [19-6], not below 1 µM.
The figure for `CC1COc2cc(Cl)ccc2N1C(=O)N1CC2(C1)CN(c1cccnc1)C2` (centres unmarked) [20-1, (7-chloro-3-methyl-2,3-dihydro-4H-benzo[b][1,4]oxazin-4-yl)(6-(pyridin-3-yl)-2,6-diazaspiro[3.3]heptan-2-yl)methanone] is not below 1 µM; for `Cc1cncc(N2CC3(CN(C(=O)N4c5ccc(F)cc5OCC4C)C3)C2)n1` (centres unmarked) [20-2] it is not below 1 µM.
As to `CC1COc2cc(Cl)ccc2N1C(=O)N1CC2(C1)CN(c1cc(C#N)ccn1)C2` (centres unmarked) [20-6], the IC50 is not below 1 µM.
The figure for `Cc1nc(N2CC3(CN(C(=O)N4c5ccc(Cl)cc5OCC4C)C3)C2)ncc1F` (centres unmarked) [20-7] is not below 1 µM; for `COc1ccnc(N2CC3(CN(C(=O)N4c5ccc(Cl)cc5OCC4C)C3)C2)c1` (centres unmarked) [20-8] it is not below 1 µM; for `COc1ccnc(N2CC3(CN(C(=O)N4c5ccc(Cl)cc5OCC4C)C3)C2)n1` (centres unmarked) [20-9] it is not below 1 µM.
Regarding `Cc1nccnc1N1CC2(CN(C(=O)N3c4ccc(Cl)cc4OCC3C)C2)C1` (centres unmarked) [20-10], the IC50 is not below 1 µM.
On to `Cc1ccnc(N2CC3(CN(C(=O)N4c5ccc(Cl)cc5OCC4C)C3)C2)c1` (centres unmarked) [20-11], for which the IC50 was not below 1 µM.
With `Cc1ccnc(N2CC3(CN(C(=O)N4c5ccc(Cl)cc5OCC4C)C3)C2)n1` (centres unmarked) [20-12] the figure was not below 1 µM; with `Cc1cnc(N2CC3(CN(C(=O)N4c5ccc(Cl)cc5OCC4C)C3)C2)nc1` (centres unmarked) [20-13], not below 1 µM.

Source of the values: patent US12152038B2, “Vasopressin receptor antagonists and products and methods related thereto” (Neumora Therapeutics, Inc., priority 2017, dated 2024).
